These results are taken from US11028128B2, “Inhibition of the aggregation of transthyretin by specific binding of peptides to aggregation-driving segments” (THE REGENTS OF THE UNIVERSITY OF CALIFORNIA, priority 2016, dated 2021).

Experiment [1] addresses T1, recombinant wild type TTR (Homo sapiens, UniProt P02766).
T1 construct: made in house; host or cells: E. coli
The experiment in a line: TTR aggregation assay in the absence of seeds (absorbance at 400 nm). The class given is biochemical. The settings on record: 1 mg/ml recombinant wild type TTR, increasing amounts of stabilizer, 4 days. As for the experimental part: Next we tested the ability of compounds and mutations that stabilize native, tetrameric TTR to halt amyloid formation induced by disease-related amyloid seeds. […] For these aggregation assays, we incubated 1 mg/ml recombinant wild type TTR with increasing amounts of stabilizers.
TTR aggregation assays are described previously (32). […] Protein aggregation was followed by absorbance at 400 nm, anti-TTR immuno-dot blot of the insoluble fraction, and/or transmission electron microscopy.

The target in experiment [2] is recombinant wild type TTR and ATTR-D38A seeds (Homo sapiens, UniProt P02766). As to conditions: 0.5 mg/ml recombinant TTR, 30 ng/μl ATTR-D38A seeds, increasing compound concentrations.
Procedure: (§1) Fibril extracts were used to seed the formation of new aggregates from recombinant TTR. In order to further purify the extracts, they were treated with 1% sodium dodecyl sulfate and the soluble fraction was discarded after centrifugation at 13,000 rpm for 5 minutes. This process was repeated two times. The sample was washed with distilled water three times by centrifugation, and then sonicated in cycles of 5 seconds on, 5 seconds off, for a total of 10 minutes, at minimum intensity (18%). The protein content was measured using the Pierce™ BCA Protein Assay Kit (ThermoFisher Scientific). Seeds were added to 0.5 mg/ml recombinant TTR in a final volume of 200 μl of 5 μM thioflavin T, 10 mM Sodium Acetate pH 4.3, 100 mM KCl, and 10 mM EDTA. Unless labeled otherwise, cardiac seeds were analyzed at 30 ng/μl concentration and seeds extracted from adipose tissue were analyzed at 5 ng/μl. Thioflavin fluorescence emission was measured at 482 nm with absorption at 440 nm in a Varioskan Flash (ThermoFisher Scientific) or FLUOstar Omega (BMG LabTech) plate readers. Plates were incubated at 37° C. for 20-72 h as labeled with cycles of 9 min shake (700 rpm double orbital) and 1 min rest throughout the incubation. Measurements were taken with automatic gain if read in Varioskan Flash, or with a manual gain of 1,000 if read in FLUOstar Omega, every 10 min, bottom read. We normalized all our assays by subtracting ThT signal at initial point of incubation. Figures show ThT signal in arbitrary units (a.u.). Fibril formation was confirmed by TEM.
(§2) Amyloid seeding assays were performed as described above. 180 μM peptide was added to 0.5 mg/ml recombinant wild type TTR and 30 ng/μl ATTR-D38A seeds. Amyloid seeding was measured after 24 hour of incubation at 37° C. by ThT fluorescence. Thioflavin T signal obtained in the absence of peptide was considered 100%.
For experiment [3], the system named is recombinant wild type TTR and ATTR-D38A seeds. The settings on record: 180 μM peptide, 0.5 mg/ml recombinant wild type TTR, 30 ng/μl ATTR-D38A seeds, 37° C.; N-methylated peptide as noted in the cell.
Procedure: as §1, §2

Where no end group is shown, it is not given here.

On to `O=C(O)c1ccc2nc(-c3cc(Cl)cc(Cl)c3)oc2c1` [tafamidis], for which, in experiment [1], the “TTR aggregation in the absence of seeds” value is listed as “considerably diminished in a dose-dependent manner”. Further, the “fibril formation with ATTR-D38A ex-vivo seeds in presence of stabilizer” value in experiment [2] was “did not reduce or delay fibril formation”.

Consider `O=C(O)c1cc(-c2ccc(F)cc2F)ccc1O` [diflunisal], for which the “TTR aggregation in the absence of seeds” value in experiment [1] is listed as “considerably diminished in a dose-dependent manner”. Besides, the “fibril formation with ATTR-D38A ex-vivo seeds in presence of stabilizer” value in experiment [2] is reported as “did not reduce or delay fibril formation”.

Consider “RRRRPYSYSTTAVVTN (not fully specified (residue 12)) [TabH1]”, for which the “B. ThT signal (20h, no inhibitor was normalized to 100%, SD = 11.42)” value in experiment [3] is 32.48 ± 2.39 (N-me-E11) %.

In the case of RRRRPFHEHAEVVFTA [TabF1], in experiment [3], the “B. ThT signal (20h, no inhibitor was normalized to 100%, SD = 11.42)” value is given as 60.45 ± 3.90 (N-me-A12) %.
